The text below walks through data of patent US20170101431A1, “NUCLEOSIDE DERIVATIVES FOR THE TREATMENT OF CANCER” (IDENIX PHARMACEUTICALS LLC, priority 2014, published 2017).

For one assay, the system named is CCRF-CEM. Kind of assay: In vitro inhibition, CellTiter-Glo (CTG) assay, CCRF-CEM. The assay is classed as cell-based. Conditions: 72 hr exposure. The procedure:
(§1) Cells were grown in RPMI-1640 supplemented with L-Glutamine and 10% FBS of the following cancer cell lines:
(§2) CCRF-CEM; CCRF-CEM-cytarabine resistant; HL-60;
(§3) 18, 96 well plates of each cell line were seeded with the optimized number of cells per well in a total volume of 50 μL per well. The plates were left overnight. Plate wells were seeded with 100 μL media for media control. The following day, cells were exposed to test compounds as described below. At the same time as drug exposure, a CTG assay was conducted on the 18th plate for the 0 hr count.
(§4) The compounds were added to cells and medium already on the plate to give desired final concentrations. 50 μL media were added to cell control wells, and 50 μL of mix added to vehicle control wells. 10 μM Doxorubicin was added to appropriate wells as control. Cells exposed to test compound were incubated at 37° C. for 72 hr followed by a CTG assay.
(§5) At the end of the 72 hr exposure period, plates were removed for a CellTiter-Glo (CTG) assay from a 37° C., 5% CO2 incubator and placed on the bench at room temperature for 30 mins. 100 μL of CellTiter-Glo reagent was added and mixed for 2 mins, followed by a further 10 min incubation at room temperature. Luminescence was recorded using Synergy 4.0.
On the technique in general: Cellular ATP, detected with luciferase, serves as a proxy for viable cell number.

The test system of assay [1] is CCRF-CEM-cytarabine resistant. Kind of assay: In vitro inhibition, CellTiter-Glo (CTG) assay, CCRF-CEM-cytarabine resistant. The assay is classed as cell-based. Conditions: 72 hr exposure. The procedure:
as §1, §2, §3, §4, §5

The next assay relates to HL-60. Kind of assay: In vitro inhibition, CellTiter-Glo (CTG) assay, HL-60. The assay is classed as cell-based. Conditions: HL-60, 72 hr exposure. The method, then:
as §1, §2, §3, §4, §5

Assay [2] deals with AML samples (live leukemic cells from bone marrow or peripheral blood of patients). Kind of assay: Ex-vivo effect on AML patient samples (depletion of live leukemic cells, flow cytometry, Annexin V). Type of assay: cell-based, human. The procedure: Patient samples were obtained from a non-interventional and prospective study. The study included samples from adult patients over 18 years of age who were diagnosed with Acute Myeloid Leukemia (AML).
In one embodiment, the method of data acquisition was performed as follows: on day 1 bone marrow (BM) or peripheral blood (PB) patient sample was received. A small part was separated from the rest of the sample for validation, while the majority of the sample was diluted with culture media and plated into 96-well plates previously prepared with the desired compounds and compound combinations, e.g., a compound or compound combination described herein. The number of live leukemic cells seeded in each well was fixed between 8000 and 32000, depending on the percentage of leukemic cells for each sample. […] Antibodies were added to identify leukemic cells using a gating strategy based on FSC/SSC and expression or lack of expression of different surface markers. The monoclonal antibodies selection was performed to optimize the identification of leukemic cell in each sample.
In one embodiment, non-limiting examples of biomarkers such as the biomarkers CD34, CD45, CD117, and HLADR known as “backbone markers” for AML (van Dongen, J. J. and A. Orfao, EuroFlow: Resetting leukemia and lymphoma immunophenotyping. Basis for companion diagnostics and personalized medicine, Leukemia, 2012, 26, 1899-907) were included in the combination.
In one embodiment, antibody combinations such as CD117/CD45, CD34/CD45, and HLADR/CD45 were used. Live leukemic cells were identified by their light scatter properties (FSC^int/hi/SSC^int) in the absence of Annexin-V-FITC staining. FSC/SSC selection was performed to exclude debris. The average percentage of cell viability upon receipt of the sample was 80% and samples were only processed if the viability was greater than 50%.
In one embodiment, sample validation was performed as follows: BM and PB samples were extracted under sterile conditions and received in the laboratory within 24 hours of extraction. Initial analysis evaluated the number of pathological cells and their viability. Different volumes of sample (1 μL, 3 μL, 5 μL and 7 μL) were aliquoted in duplicate into a 96-well plate. To lyse red blood cells, 180 μL of ammonium chloride lysis solution was added to each well (2 g KHCO3, 16.58 g NH4Cl, 0.074 g Na2EDTA2.H2O, H2O to […]). Following a 10 min incubation period at 4° C., plate was centrifuged for 5 min at 1200 rpm and the supernatant removed. The lysis step was performed twice. To analyze, 20 μL of a combination of Annexin V-FITC (Immunostep, Salamanca, Spain), binding buffer (BB, 2.4 g HEPES, 8.19 g NaCl, 0.37 g Cl2Ca, H2O to […]), and the following monoclonal antibodies (mAb) were added to each well: CD117 (clone 104D2)-PE (Becton Dickinson, San Jose, Calif., US), CD34 (clone 581)-PerCP (BioLegend, San Diego, Calif., US), HLADR (clone L243)-PB (BioLegend) and CD45 (HI30)-PO (Life Technologies, Carlsbad, Calif., US) (van Dongen, J. J., et al., EuroFlow antibody panels for standardized n-dimensional flow cytometric immunophenotyping of normal, reactive and malignant leukocytes, Leukemia, 2012, 26, 1908-75). After 15 min of incubation at room temperature in the dark, a wash step was performed using binding buffer solution. The pellet was resuspended in 30 μL BB for analysis in Vivia's ExviTech© platform. Cell count and viability upon arrival were computed and the optimal volume of sample to use per well was determined.
In one embodiment, the assay was performed according to following method: the whole sample was diluted with RPMI 1640, supplemented with 20% (v/v) FBS (Thermo Scientific, Waltham, Mass., US), 2% HEPES, 1% antibiotic (Zell Shield, Labclinics, Barcelona, Spain) and 1% L-glutamine 200 mM (Lonza, Hopkinton, Mass., US) to a final volume of 60 μL per well. […]
For orientation: A flow cytometer gives signals particle by particle.

Where [3] appears, read: Homo sapiens, 48 h, plates incubated for 48 hours.
Where [4] appears, read: Homo sapiens, 48 h, plates incubated for 48 hours, read-out: Emax.
The mark [5] stands for this setting: Homo sapiens, 72 h, plates incubated for 72 hours.
Where [6] appears, read: Homo sapiens, 72 h, plates incubated for 72 hours, read-out: Emax.

Structures are written as SMILES. Read-outs that look alike come from different tables or passages of the source. Bounds are passed on as bounds.

For orientation: IC50 means the concentration that inhibits the measured activity by half. What is called EC50 is the concentration giving half of the maximal effect. As usually defined, the Emax is the maximal effect, on the per cent scale that the assay sets.

In the case of `C[C@H](NP(=O)(OCc1ccc([N+](=O)[O-])s1)OC[C@H]1O[C@@H](n2ccc(N)nc2=O)[C@@H](O)[C@@H]1O)C(=O)OCc1ccccc1` (single isomer, unassigned) [24f (diastereoisomer 1)], the IC50 was below 1 µM with CCRF-CEM (Homo sapiens); 10 to 25 µM in assay [1] (72 h); 10 to 25 µM in the assay on HL-60 (Homo sapiens, HL-60, 72 h).
As for `Cn1c(COP(=O)(OCc2cnc([N+](=O)[O-])s2)OC[C@H]2O[C@@H](n3ccc(N)nc3=O)[C@@H](O)[C@@H]2O)cnc1[N+](=O)[O-]` (stereo partly drawn) [Compound 24c, [(2R,3S,4S,5R)-5-(4-amino-2-oxo-pyrimidin-1-yl)-3,4-dihydroxy-tetrahydrofuran-2-yl]methyl (3-methyl-2-nitro-imidazol-4-yl)methyl (2-nitrothiazol-5-yl)methyl phosphate], the results for the IC50 (with CCRF-CEM (Homo sapiens); in assay [1]; in the assay with HL-60 (Homo sapiens)) were below 1 µM, 10 to 25 µM and below 1 µM, respectively.
As for `CCOC(=O)[C@H](C)NP1(=O)OC[C@H]2O[C@@H](n3cnc4c(N)nc(Cl)nc43)[C@@H](F)[C@@H]2O1` (stereo partly drawn) [Compound 10, Ethyl (2S)-2-[[(4aR6R,7S,7aR)-6-(6-amino-2-chloro-purin-9-yl)-7-fluoro-2-oxo-4a,6,7,7a-tetrahydro-4H-furo[3.2-d][1,3,2]dioxaphosphinin-2-yl]amino]propanoate], the IC50 in the assay on CCRF-CEM (Homo sapiens) was below 1 µM; in assay [1], 25 to 100 µM; in the assay on HL-60 (Homo sapiens, HL-60, 72 h), 1 to 10 µM.
As for `C[C@H](NP(=O)(OCc1ccc([N+](=O)[O-])s1)OC[C@H]1O[C@@H](n2ccc(N)nc2=O)[C@@H](O)[C@@H]1O)C(=O)OCc1ccccc1` (single isomer, unassigned) [24f (diastereoisomer 2)], the IC50 in the assay on CCRF-CEM was below 1 µM; in assay [1] it was 10 to 25 µM; with HL-60 it was 10 to 25 µM.
For `Nc1ccn([C@@H]2O[C@H](COP(=O)(NCc3ccccc3)OCc3ccc([N+](=O)[O-])o3)[C@@H](O)[C@@H]2O)c(=O)n1` (single isomer, unassigned) [25 (diastereoisomer 2)], the IC50 with CCRF-CEM was below 1 µM; in assay [1], 10 to 25 µM; in the assay with HL-60, 1 to 10 µM.
For `CCOC(=O)[C@H](C)NP1(=O)OC[C@H]2O[C@@H](n3cnc4c(N)nc(Cl)nc43)[C@@H](F)[C@@H]2O1` (stereo partly drawn) [Compound 11, Ethyl (2S)-2-[[(4aR6R,7S,7aR)-6-(6-amino-2-chloro-purin-9-yl)-7-fluoro-2-oxo-4a,6,7,7a-tetrahydro-4H-furo[3.2-d][1,3,2]dioxaphosphinin-2-yl]amino]propanoate] the same measures were below 1 µM, 1 to 10 µM and below 1 µM.
As to `Nc1ccn([C@@H]2O[C@H](COP(=O)(OCc3ccc([N+](=O)[O-])o3)OCc3ccc([N+](=O)[O-])o3)[C@@H](O)[C@@H]2O)c(=O)n1` [Compound 24e, [(2R,3S,4S,5R)-5-(4-amino-2-oxo-pyrimidin-1-yl)-3,4-dihydroxy-tetrahydrofuran-2-yl]methyl bis[(5-nitro-2-furyl)methyl]phosphate], the IC50 with CCRF-CEM (Homo sapiens) was below 1 µM; in assay [1] it was 10 to 25 µM; with HL-60 (Homo sapiens), below 1 µM.
On to `Nc1ccn([C@@H]2O[C@H](COP(=O)(NCc3ccccc3)OCc3ccc([N+](=O)[O-])o3)[C@@H](O)[C@@H]2O)c(=O)n1` (single isomer, unassigned) [25 (diastereoisomer 1)], for which the IC50 with CCRF-CEM (Homo sapiens) is below 1 µM; in assay [1] (72 h) it was 10 to 25 µM; with HL-60 (Homo sapiens, HL-60, 72 h), 1 to 10 µM.
For the compound `CCOC(=O)C(C)NP1(=O)OCC2O[C@@H](n3cnc4c(N)nc(Cl)nc43)[C@@H](F)[C@@H]2O1` (single isomer, unassigned) [drawing 654], in assay [2] (plates incubated for 72 hours), the EC50 is 10 to 20 µM and the Emax entry is “B (B=10-20%)”.
Consider `COC(=O)[C@H](CC(C)C)NP(=O)(N[C@@H](CC(C)C)C(=O)OC)OC[C@H]1O[C@@H](N2C=NC3C(N)=NC(F)=NC32)[C@@H](O)[C@@H]1O` (some centres unmarked), for which, in assay [2] (setting [3]), the half-maximal effective concentration (EC50) was at least 20 µM. Also, the maximal effect (Emax) in assay [2] (setting [4]) fell in the range of 10 to 20%.
On to `Nc1ccn([C@@H]2O[C@H](COP(=O)(O)NCc3ccccc3)C(O)C2O)c(=O)n1` (some centres unmarked), for which the concentration for a half-maximal effect (EC50) in assay [2] (setting [5]) is 10 to 20 µM. In assay [2] (setting [6]), the Emax was 0 to 10%.
In the case of `CCOC(=O)[C@H](C)NP1(=O)OC[C@H]2O[C@@H](n3cnc4c(N)nc(F)nc43)[C@@H](O)[C@@H]2O1` (single isomer, unassigned) [drawing 680], the concentration giving a half-maximal response (EC50) in assay [2] (setting [3]) is 10 to 20 µM. In addition, in assay [2] (setting [4]), the Emax was above 20%.
As for `CCOC(=O)[C@H](C)NP1(=O)OC[C@H]2O[C@@H](n3cnc4c(N)nc(F)nc43)[C@@H](O)[C@@H]2O1` (single isomer, unassigned) [drawing 681], in assay [2] (plates incubated for 48 hours), the EC50 was 10 to 20 µM.
`CC(C)OP1(=O)OC[C@H]2O[C@@H](N3C=NC4C(N)=NC(F)=NC43)[C@@H](O)[C@@H]2O1` (single isomer, unassigned) [drawing 675]: the concentration giving a half-maximal response (EC50) in assay [2] (setting [3]) is 10 to 20 µM. In assay [2] (setting [4]), the Emax was above 20%.
Consider `CC(C)(CO)C(=O)SCCOP(=O)(NCc1ccccc1)OC[C@H]1O[C@@H](n2cnc3c(N)nc(Cl)nc32)C(F)C1O` (single isomer, unassigned) [drawing 658], for which, in assay [2] (plates incubated for 72 hours), the EC50 lay in the range of 1 to 10 µM and the Emax result was “B (B=10-20%)”.
For `COC(=O)COP(=O)(N[C@@H](CC(C)C)C(=O)OC)OC[C@H]1O[C@@H](n2cnc3c(N)nc(Cl)nc32)C(F)C1O` (single isomer, unassigned) [drawing 659], the EC50 in assay [2] (setting [5]) was 1 to 10 µM. Also, in assay [2] (setting [6]), the Emax was above 20%.
On the same counts, the results for `COC(=O)[C@H](CC(C)C)NP(=O)(N[C@@H](CC(C)C)C(=O)OC)OC[C@H]1O[C@@H](n2cnc3c(N)nc(Cl)nc32)C(F)C1O` (some centres unmarked) are 1 to 10 µM and above 20%.
Regarding `CCOC(=O)[C@H](CC(C)C)NP1(=O)OC[C@H]2O[C@@H](n3cnc4c(N)nc(F)nc43)[C@@H](O)[C@@H]2O1` (single isomer, unassigned) [drawing 673], in assay [2] (plates incubated for 48 hours), the EC50 is at least 20 µM and the Emax entry is “A (A=0-10%)”.
Take `Nc1nc(Cl)nc2c1ncn2[C@@H]1O[C@H](COP(=O)(O)NCc2ccccc2)C(O)C1F` (some centres unmarked): in assay [2] (setting [5]), the EC50 is at most 1 µM. Besides, the Emax in assay [2] (setting [6]) fell in the range of 0 to 10%.
On the same counts, the results for `CC(C)(CO)C(=O)SCCOP(=O)(NCc1ccccc1)OC[C@H]1O[C@@H](n2ccc(N)nc2=O)C(O)C1O` (some centres unmarked) are 10 to 20 µM and 0 to 10%.
